Where two headings read alike, the source gives them in different places.
Tests used:
[1] = tested on: HepG2 cells; test: cells; format: cell-based; conditions: for AC50: Homo sapiens, HepG2, 24 h
[2] = molecular target: 5-HT2B (h) (Homo sapiens, UniProt P41595); test: Pharmacology profiling: 5-HT2B (h) (agonist RL); format: binding
Text: (§1) Cosmetics Europe’s Systemic Toxicity Taskforce (SysTox-TF) has extended the list of targets in an in vitro screen originally described by [Bowes et al. (2012)] to assess the effects of cosmetic chemicals on target molecules. The approach was based on the knowledge that various targets of pharmacological interest have been linked to human adverse drug reactions, and that screening of these has helped the pharma industry in identifying drug candidates with acceptable human safety profiles ([Bowes et al., 2012]; [Scott et al., 2022]). The methods used by the pharma industry were adapted for use in cosmetic chemical NGRA. A final list of 83 target assays were considered suitable for cosmetic chemical safety testing (see Supplementary Materials S1.7). The targets were receptors, ion channels, transporters and enzymes identified by the pharma industry as linked to human adverse drug reactions, supplemented by additional targets that have been reasoned to be linked to systemic toxicities of chemicals in animals. Chemicals that are flagged for a target are tested in follow-up dose-response assays to establish potency of the interaction. […]. [Valentin et al., 2018]; [Dodson et al., 2021]). […].
(§2) assay’s reference compound was set to 100%. For antagonist assays, the basal signal (exposure to fixed concentration of agonist only) was set to 100%. Activity of the samples was scaled accordingly, […]
(§3) Using these graphs, lowest […]
(§4) compound activity for antagonist assays.
(§5) S1.7. Pharmacology profiling assays […]
(§6) reasoned to link to pathological effects. […]
(§7) around the control level. […]
(§8) determine the potency (IC50).
(§9) Supplementary Table S4 Pharmacology profiling assay panel. […]

[3] = molecular target: Adenosine A2A (h) (Homo sapiens, UniProt P29274); test: Pharmacology profiling: Adenosine A2A (h) (agonist RL); format: binding
Text: as §1, §2, §3, §4, §5, §6, §7, §8, §9

[4] = molecular target: PDE4D2 (h) (Homo sapiens, UniProt Q08499); test: Pharmacology profiling: PDE4D2 (h) (phosphodiesterase 4D); format: biochemical
Text: as §1, §2, §3, §4, §5, §6, §7, §8, §9

[5] = tested on: HepG2 cells; test: Transcriptomics (TempO-Seq, BMD analysis) in HepG2 cells; format: cell-based, human
Description: (§10) These differed with respect to the number of genes passing all filters in each pathway (3 versus 5 genes). […] Therefore, we captured pathways which fulfilled both criteria.
(§11) HepG2 (human hepatoblastoma) , MCF-7 (human breast adenocarcinoma) cells supplied by
(§12) Public Health England European Collection of Cell Cultures (ECACC, Salisbury, UK). Differentiated
(§13) HepaRG cells (HPR116, Lot HPR116239 -TA08) were from Biopredic International (Rennes, France).
(§14) Test chemicals were prepared in DMSO as serial dilutions, resulting in concentrations in media of
(§15) biological replicates were treated with the appropriate dose of co mpound for 24 h prior to cell lysis.
(§16) Biospyder human whole genome panel version 1 (https://biospyder.com).
Gene normalization and analysis
(§17) expression values for each probe were normalized by applying DESEQ2 normalization. A pseudo-
(§18) read-count of 1.0 was added to each normalized expression value, and then the values were log2
(§19) transformed . Analyses performed included Gene and Pathway, Dose Response and Network
(§20) monotonic increasing/decreasing trend were those which confirmed to the criteria : William’s trend
(§21) Those genes were then used in categorical (pathway) analysis for the Gene Ontology (GO) terms and
(§22) REACTOME pathways. Significant dose responsive pathways were determined according to : Fisher’s

[6] = tested on: HepaRG cells; test: Transcriptomics (TempO-Seq, BMD analysis) in HepaRG cells; format: cell-based
Description: as §10, §11, §12, §13, §14, §15, §16
Gene normalization and analysis
as §17, §18, §19, §20, §21, §22

[7] = format: in vitro ADME; conditions: 3 nmol/cm^2 in the body lotion formulation
Text: Additional information was required to determine whether an adjustment factor was needed to account for a difference in the absorption of daidzein after topical application and whether the absorption was impacted by the use of the intended (body lotion base) formulation. […]. […] […]. The results of this study are described in detail by [Géniès et al. (2024)] and are summarized here.

[8] = tested on: U2-OS cells
Description: using the U2-OS based CALUX cytotox bioassay. The cytotoxicity of each test chemical was assessed using the U2-OS based cytotoxicity CALUX bioassay. Concentrations causing >20% reduction of luminescence were considered cytotoxic.
cytotoxicity (relative induction in the cytotoxicity CALUX bioassay > 80%) were used for final
evaluation of analysis results.
induction in the cytotox CALUX bioassay > 80%) were used for final evaluation of analysis results.
All analysis results were expressed in molar (M) final in well.
For the analyses in the presence of rat liver S9, 0.03% (v/v) of PB/BNF induced rat liver
S9 mix (including NADPH and an NADPH-regenerating system) was added to the cells directly after
addition of the compounds, which remained there for the duration of the exposure period (24 h) (van

[9] = tested on: Estrogen pathway; parameters: method as in ToxCast; conditions: ref ToxCast; read-out: Estrogen pathway: Receptor binding, AC50; cited from earlier work
[10] = tested on: Thyroid pathway; parameters: method as in ToxCast; conditions: ref ToxCast; read-out: Thyroid pathway: Reporter protein Antagonist, AC50; cited from earlier work
[11] = tested on: TSHR; parameters: method as in ToxCast; conditions: ref ToxCast; cited from earlier work; further: key: Pos = positive result; Neg = negative result; Inc = uncertain/inconclusive result
[12] = tested on: Thyroid peroxidase; parameters: method as in ToxCast; conditions: ref ToxCast; cited from earlier work; further: key: Pos = positive result; Neg = negative result; Inc = uncertain/inconclusive result
[13] = tested on: Deiodinase; parameters: method as in ToxCast; conditions: ref ToxCast, cited from earlier work; on Thyroid pathway: Deiodinase (Not AOP), Call: key: Pos = positive result; Neg = negative result; Inc = uncertain/inconclusive result
[14] = tested on: Monooxygenase; parameters: method as in ToxCast; conditions: ref ToxCast, cited from earlier work
[15] = tested on: Aromatase; parameters: method as in ToxCast; conditions: ref ToxCast; cited from earlier work; further: key: Pos = positive result; Neg = negative result; Inc = uncertain/inconclusive result
[16] = HepaRG, 24 h, pathway differs per chemical

PDE4D2 (h), sequence (Q08499 303-809): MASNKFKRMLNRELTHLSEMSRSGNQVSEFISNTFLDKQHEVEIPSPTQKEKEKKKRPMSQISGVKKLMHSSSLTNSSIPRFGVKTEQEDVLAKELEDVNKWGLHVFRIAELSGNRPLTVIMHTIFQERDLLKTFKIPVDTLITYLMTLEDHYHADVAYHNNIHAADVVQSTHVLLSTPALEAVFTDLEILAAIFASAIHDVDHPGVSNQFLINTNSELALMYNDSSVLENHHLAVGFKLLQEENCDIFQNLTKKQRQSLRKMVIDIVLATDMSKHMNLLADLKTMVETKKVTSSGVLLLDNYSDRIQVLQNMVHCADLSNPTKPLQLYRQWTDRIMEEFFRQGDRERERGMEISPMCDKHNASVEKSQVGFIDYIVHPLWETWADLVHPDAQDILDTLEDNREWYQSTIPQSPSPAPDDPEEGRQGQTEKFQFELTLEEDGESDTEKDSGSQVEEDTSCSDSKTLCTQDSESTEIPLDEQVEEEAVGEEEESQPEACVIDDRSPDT
5-HT2B (h), sequence (P41595 whole entry): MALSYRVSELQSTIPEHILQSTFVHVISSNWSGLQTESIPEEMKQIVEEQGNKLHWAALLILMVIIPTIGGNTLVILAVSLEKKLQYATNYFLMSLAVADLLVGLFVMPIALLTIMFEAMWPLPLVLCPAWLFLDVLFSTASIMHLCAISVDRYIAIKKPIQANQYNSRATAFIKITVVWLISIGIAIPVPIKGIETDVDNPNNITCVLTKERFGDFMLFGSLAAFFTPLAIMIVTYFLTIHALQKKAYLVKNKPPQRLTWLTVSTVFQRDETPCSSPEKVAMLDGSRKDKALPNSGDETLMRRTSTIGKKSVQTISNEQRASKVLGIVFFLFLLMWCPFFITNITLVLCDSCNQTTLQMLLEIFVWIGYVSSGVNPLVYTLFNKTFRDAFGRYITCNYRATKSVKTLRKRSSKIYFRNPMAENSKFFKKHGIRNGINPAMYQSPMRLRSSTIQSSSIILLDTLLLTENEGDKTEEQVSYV
Adenosine A2A (h), sequence (P29274 whole entry): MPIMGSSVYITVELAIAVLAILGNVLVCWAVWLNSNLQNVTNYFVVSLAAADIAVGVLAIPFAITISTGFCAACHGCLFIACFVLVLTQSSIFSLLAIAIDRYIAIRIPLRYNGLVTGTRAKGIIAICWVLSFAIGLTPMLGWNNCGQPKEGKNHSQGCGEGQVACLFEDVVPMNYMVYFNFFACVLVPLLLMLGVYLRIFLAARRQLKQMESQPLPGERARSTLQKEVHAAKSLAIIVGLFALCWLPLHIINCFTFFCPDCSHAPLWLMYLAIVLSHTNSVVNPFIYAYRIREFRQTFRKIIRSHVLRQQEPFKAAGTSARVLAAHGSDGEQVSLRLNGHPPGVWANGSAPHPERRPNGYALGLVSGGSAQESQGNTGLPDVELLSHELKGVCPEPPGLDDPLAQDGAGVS

## O=c1c(-c2ccc(O)cc2)coc2cc(O)cc(O)c12 [Genistein, 5,7-DIHYDROXY-3-(4-HYDROXYPHENYL)-4-BENZOPYRONE]
[1]
  AhR Translocation: Effect: increase
  Apoptosis & necrosis: caspase 3/7: Effect: increase
  Apoptosis & necrosis: cell cycle arrest: Effect: decrease
  Cellular ATP: Effect: decrease
  DNA damage: Phospho-p53: Effect: increase
  DNA damage: p-H2AX: Effect: increase
  ER stress panel 1: ER integrity: Effect: increase
  ER stress panel 1: XBP1: Effect: increase
  ER stress panel 2: CHOP: Effect: increase
  Inflammation & pH: HIF1α: Effect: increase
  Inflammation & pH: ICAM-1: Effect: increase
  Inflammation & pH: intracellular pH: Effect: increase
  Metal stress: MTF1: Effect: decrease
  Mitochondrial mass: Effect: increase
  Mitochondrial membrane potential: Effect: decrease
  Nuclear size: Effect: increase
  Osmotic & heat shock: NFAT: Effect: increase
  Oxidative stress: HMOX1: Effect: increase
  Oxidative stress: NRF2: Effect: increase
  Seahorse assay: Extracellular acidification rate (ECAR): Effect: decrease
  Seahorse assay: oxygen consumption rate (OCR): Effect: decrease
  Seahorse assay: reserve capacity: Effect: decrease
[1]; read-out: AhR Translocation: AC50
  AC50: > 100 µM
[1]; read-out: Apoptosis & necrosis: caspase 3/7: AC50
  AC50: > 100 µM
[1]; read-out: Apoptosis & necrosis: cell cycle arrest: AC50
  AC50: > 100 µM
[1]; read-out: Cellular ATP: AC50
  AC50: > 100 µM
[1]; read-out: DNA damage: Phospho-p53: AC50
  AC50: > 100 µM
[1]; read-out: DNA damage: p-H2AX: AC50
  AC50: > 100 µM
[1]; read-out: ER stress panel 1: ER integrity: AC50
  AC50: > 100 µM
[1]; read-out: ER stress panel 1: XBP1: AC50
  AC50: 40.4 µM
[1]; read-out: ER stress panel 2: CHOP: AC50
  AC50: > 100 µM
[1]; read-out: Inflammation & pH: HIF1α: AC50
  AC50: > 100 µM
[1]; read-out: Inflammation & pH: ICAM-1: AC50
  AC50: > 100 µM
[1]; read-out: Inflammation & pH: intracellular pH: AC50
  AC50: > 100 µM
[1]; read-out: Metal stress: MTF1: AC50
  AC50: > 100 µM
[1]; read-out: Mitochondrial mass: AC50
  AC50: > 100 µM
[1]; read-out: Mitochondrial membrane potential: AC50
  AC50: 69.6 µM
[1]; read-out: Nuclear size: AC50
  AC50: > 100 µM
[1]; read-out: Osmotic & heat shock: NFAT: AC50
  AC50: > 100 µM
[1]; read-out: Oxidative stress: HMOX1: AC50
  AC50: > 100 µM
[1]; read-out: Oxidative stress: NRF2: AC50
  AC50: > 100 µM
[1]; read-out: Seahorse assay: Extracellular acidification rate (ECAR): AC50
  AC50: > 100 µM
[1]; read-out: Seahorse assay: oxygen consumption rate (OCR): AC50
  AC50: > 100 µM
[1]; read-out: Seahorse assay: reserve capacity: AC50
  AC50: > 100 µM
[1]; human, 24 h
  AhR Translocation: MEC: 51.2 µM
  Apoptosis & necrosis: caspase 3/7: MEC: 49.8 µM
  Apoptosis & necrosis: cell cycle arrest: MEC: 35.8 µM
  Cell stress LOEC, ↓ in mitochondrial membrane potential: 11.6 µM
  Cellular ATP: MEC: 31.5 µM
  DNA damage: Phospho-p53: MEC: 22.8 µM
  DNA damage: p-H2AX: MEC: 13.4 µM
  ER stress panel 1: ER integrity: MEC: 23.3 µM
  ER stress panel 1: XBP1: MEC: 40.9 µM
  ER stress panel 2: CHOP: MEC: 69.0 µM
  Inflammation & pH: HIF1α: MEC: 44.8 µM
  Inflammation & pH: ICAM-1: MEC: 34.4 µM
  Inflammation & pH: intracellular pH: MEC: 50.6 µM
  Metal stress: MTF1: MEC: 25.5 µM
  Mitochondrial mass: MEC: 15.0 µM
  Mitochondrial membrane potential: MEC: 11.6 µM
  Nuclear size: MEC: 25.2 µM
  Osmotic & heat shock: NFAT: MEC: 49.4 µM
  Oxidative stress: HMOX1: MEC: 29.9 µM
  Oxidative stress: NRF2: MEC: 29.9 µM
  Seahorse assay: Extracellular acidification rate (ECAR): MEC: 27.7 µM
  Seahorse assay: oxygen consumption rate (OCR): MEC: 41.5 µM
  Seahorse assay: reserve capacity: MEC: 34.8 µM
[2]
  IC50: 0.682 µM
[2]; read-out: 5-HT2B (h) (agonist RL): % inhibition @10 µM
  inhibition at 10 µM: 91.9%
[3]
  IC50: 10 µM
[3]; read-out: Adenosine A2A (h) (agonist RL): % inhibition @10 µM
  inhibition at 10 µM: 52.2%
[4]
  IC50: 0.738 µM
[4]; read-out: PDE4D2 (h) (phosphodiesterase 4D): % inhibition @10 µM
  inhibition at 10 µM: 87%
[5]; HepG2, 24 h, pathway differs per chemical
  Lowest median BMD, >5 genes passing all filters: 15.7 µM
[5]; HepG2, 24 h, pathway named in the cell
  BMD relating to estrogen effects: 53.8 - Estrogen-dependent gene expression ↓ µM
[5]; HepG2 cells
  BMD/NOEC, gene pathway deregulation: 15.7 µM
[6]; HepaRG cells
  BMD/NOEC, gene pathway deregulation: 40.0 nM
[6]; [16]
  Lowest median BMD, 3 genes passing all filters: 0.040 µM
  Lowest median BMD, >5 genes passing all filters: 0.051 µM
[6]; HepaRG, 24 h, pathway named in the cell
  BMD relating to estrogen effects: 0.11- Estrogen-dependent gene expression ↑ µM
[7]
  Amount of parent chemical entering the systemic circulation: 7.2 % of the applied dose
[8]; +S9 (rat liver)
  Cytotoxicity LOEC, +S9: >−5 Log M
[8]; −S9
  Cytotoxicity LOEC, −S9: >−5 Log M
[9]
  AC50: 0.01 µM
[10]
  AC50: 13.1 µM
[11]
  Thyroid pathway: Regulation of transcription factor activity (TSHR), Call: Neg
[12]
  Thyroid pathway: Thyroid peroxidase, Call: Pos
[13]
  Thyroid pathway: Deiodinase (Not AOP), Call: Pos
[13]; read-out: Thyroid pathway: Deiodinase (Not AOP), AC50
  AC50: 2.43 µM
[14]
  Thyroid pathway: Monooxygenase (Not AOP), Call: Pos
[14]; read-out: Thyroid pathway: Monooxygenase (Not AOP), AC50
  AC50: 9.44 µM
[15]
  Steroidogenesis: Aromatase, Call: Neg

From publication PMC11220827 (Frontiers in Pharmacology, 2024)
